Here are results for two molecules from US10183019B2, “Treatment of cancer with dihydropyrazino-pyrazines” (Signal Pharmaceuticals, LLC, priority 2013, dated 2019).

For assay [1], the system named is patient-derived GBM cell line 157. Nature of the assay: Gliomasphere Cell Number Assay. The conditions noted are these: cell line 157, Primary, MGMT status −; 50% cell numbers vs DMSO control, Day 2 to Day 9; read-out: IC50 Cell Survival. The format is cell-based. The procedure: (§1) Gliomasphere Cell Number Assay. Primary patient-derived GBM tumor samples were dissociated and plated under culture conditions that produce gliomaspheres (i.e. DMEM/F12 medium supplemented with B27, 20 ng/mL bFGF, 50 ng/mL EGF, penicillin/streptomycin, L-glutamine and 5 ug/mL heparin). Cells were plated at a density of 5000 cells/well and allowed to acclimate overnight at 37° C. The Dihydropyrazino-Pyrazine Compounds were added to the cultures on Day 2 and cells were kept in culture until Day 9. On Day 9, the cells were fixed with PFA/methanol and the next day assessed for cell number, using for example, SYTO-9 fluorescent DNA dye. Plates were read 48 h later with a laser scanning imager.

The subject of assay [2] is patient-derived GBM cell line 206. Nature of the assay: Gliomasphere Cell Number Assay. The format is cell-based. The note with it: cell line 206, Recurrent, MGMT Unkn/Highly Expressed; 50% cell numbers vs DMSO control, Day 2 to Day 9; read-out: IC50 Cell Survival. The procedure:
as §1

The subject of assay [3] is patient-derived GBM cell line 217. Briefly: Gliomasphere Cell Number Assay. The format is cell-based. The conditions noted are these: cell line 217, Primary; 50% cell numbers vs DMSO control, Day 2 to Day 9; read-out: IC50 Cell Survival. The protocol:
as §1

Assay [4] concerns patient-derived GBM cell line 250. Briefly: Gliomasphere Cell Number Assay. The format is cell-based. The conditions noted are these: cell line 250, Recurrent, MGMT Unkn/Highly Expressed; 50% cell numbers vs DMSO control, Day 2 to Day 9; read-out: IC50 Cell Survival. The procedure: as §1
Assay [5] has as its system patient-derived GBM cell line 254. Briefly: Gliomasphere Cell Number Assay. The format is cell-based. The conditions noted are these: cell line 254, Recurrent; 50% cell numbers vs DMSO control, Day 2 to Day 9; read-out: IC50 Cell Survival. The procedure: as §1
Assay [6] relates to patient-derived GBM cell line 277. Nature of the assay: Gliomasphere Cell Number Assay. The format is cell-based. The conditions noted are these: cell line 277, Secondary/Recurrent; 50% cell numbers vs DMSO control, Day 2 to Day 9; read-out: IC50 Cell Survival. The procedure:
as §1

The test system of assay [7] is patient-derived GBM cell line 296. Briefly: Gliomasphere Cell Number Assay. The format is cell-based. The note with it: cell line 296, Recurrent, MGMT status −; 50% cell numbers vs DMSO control, Day 2 to Day 9; read-out: IC50 Cell Survival. The procedure:
as §1

Assay [8] deals with patient-derived GBM cell line 336. Briefly: Gliomasphere Cell Number Assay. It is filed as cell-based. The note with it: cell line 336, Recurrent, MGMT status +; 50% cell numbers vs DMSO control, Day 2 to Day 9; read-out: IC50 Cell Survival. The protocol:
as §1

Assay [9] concerns patient-derived GBM cell line 347. Briefly: Gliomasphere Cell Number Assay. The format is cell-based. The conditions noted are these: cell line 347, Recurrent, MGMT status −; 50% cell numbers vs DMSO control, Day 2 to Day 9; read-out: IC50 Cell Survival. The procedure:
as §1

Assay [10] has as its system patient-derived GBM cell line 378. Briefly: Gliomasphere Cell Number Assay. The format is cell-based. The note with it: cell line 378, Recurrent, MGMT status −; 50% cell numbers vs DMSO control, Day 2 to Day 9; read-out: IC50 Cell Survival. The procedure: as §1
Assay [11] concerns patient-derived GBM cell line 217. Briefly: Gliomasphere Formation Assay. The conditions noted are these: cell line 217, Primary; 50% sphere formation vs DMSO control. The format is cell-based. The protocol: (§2) Primary patient-derived GBM tumor samples were dissociated and plated under culture conditions (i.e. DMEM/F12 medium supplemented with B27, 20 ng/mL bFGF, 50 ng/mL EGF, penicillin/streptomycin, L-glutamine and 5 ug/mL heparin) that produce gliomaspheres. Cells were plated at a density of 50 cells per well and allowed to acclimate overnight at 37° C. The Dihydropyrazino-Pyrazine Compounds were added to the cultures on Day 2 and replenished every 7 days. EGF and FGF were also replenished every 7 days. The cells were fixed with PFA/methanol when the smallest sphere was greater than 60 microns, typically 3-5 weeks. The cells were fixed with PFA/methanol and the next day assessed for cell number, using for example, SYTO-9 fluorescent DNA dye. Plates were read 48 h later with a laser scanning imager.

The test system of assay [12] is patient-derived GBM cell line 245. Nature of the assay: Gliomasphere Formation Assay. The note with it: cell line 245, Recurrent; 50% sphere formation vs DMSO control. It is filed as cell-based. The procedure:
as §2

Assay [13] relates to patient-derived GBM cell line 296. Briefly: Gliomasphere Formation Assay. The format is cell-based. The note with it: cell line 296, Recurrent, MGMT status −; 50% sphere formation vs DMSO control. The procedure:
as §2

The test system of assay [14] is patient-derived GBM cell line 308. Nature of the assay: Gliomasphere Formation Assay. It is filed as cell-based. The note with it: cell line 308, Recurrent, MGMT Unkn/Highly Expressed; 50% sphere formation vs DMSO control. The protocol: as §2
For assay [15], the system named is patient-derived GBM cell line 350. Briefly: Gliomasphere Formation Assay. The format is cell-based. The note with it: cell line 350, Recurrent; 50% sphere formation vs DMSO control. The procedure: as §2
The subject of assay [16] is HF2354 PDX (GBM neurosphere line HF2354). Briefly: Patient derived xenograft (PDX) survival study. The conditions noted are these: HF2354 PDX in nude mice; 10 mg/kg oral gavage once a day, Monday through Friday. It is filed as in vivo, nude mouse. The protocol:
FIG. 2: Kaplan-Meier survival analysis for HF2354 PDX line (end of study). Treatment schedule for survival (Rx) and target hit (TH) are indicated.
Immunocompromised mice (nude mouse NCRNU-M, TACONIC) were implanted with a GBM neurosphere line derived from fresh surgical specimens. The cell line was characterized as following:
Patient derived xenograft (PDX) treatments started four weeks prior to when the first animal was expected to become symptomatic. […] Control animals were administered vehicle alone. Target hit cohorts were treated with one dose of each compound and sacrificed 2 and 24 h later (n=3/group). As necessary, fluids and supplemental food were administered to ameliorate weight loss.
A general note: Xenograft models place foreign cells or tissue in a host animal.

The test system of assay [17] is patient-derived GBM cell line 206. Nature of the assay: Combination effect of Compound 1 and TMZ on cell survival (fractional product). It is filed as cell-based. The conditions noted are these: 168 h, 7 days, read-out: % Actual inh. The text has this:
(§3) TMZ is an alkylating agent that delivers a methyl group to the purine bases of DNA (O^6-guanine; N^7-guanine and N^3-adenine). The cytotoxic lesion, O^6-methylguanine (O^6-MeG), caused by TMZ can be directly removed by methylguanine methyltransferase (MGMT) via direct repair and can also activate mechanisms of mismatch repair (MMR). Futile cycles of MMR lead to the formation of double-stranded DNA breaks and activation of the DNA-PK mediated mechanisms of double-stranded break repair.
(§4) Tumorspheres grown under tumorsphere culture conditions were harvested, dissociated into single cells, and plated at 5,000 cells/well in 96-well plates. […] When the value of the column % actual inhibition divided by % inhibition calculated based on summation is >1=synergism, ˜1=summation, <1=antagonism.

For assay [18], the system named is patient-derived GBM cell line 217. The assay is described as above. The conditions noted are these: 168 h, 7 days, read-out: % Actual inh. The format is cell-based.
Description: as §3, §4

By IC50 is commonly meant the concentration needed to halve the response being measured. Regarding `CO[C@H]1CC[C@H](N2C(=O)CNc3ncc(-c4ccc(C(C)(C)O)nc4)nc32)CC1` [Compound 2, 7-(6-(2-hydroxypropan-2-yl)pyridin-3-yl)-1-((1r,4r)-4-methoxycyclohexyl)-3,4-dihydropyrazino-[2,3-b]pyrazin-2(1H)-one], the IC50 was found to be 0.171 µM in assay [1]; 0.118 µM in assay [2]; 0.0963 µM in assay [3]; 0.0507 µM in assay [4]; 0.216 µM in [5]; 0.106 µM in [6]. Further, the IC50 was found to be 0.257 µM in assay [7]; 0.866 µM in [8]; 0.173 µM in [9]; 0.157 µM in assay [10]; 0.0689 µM in assay [11]; 0.0651 µM in assay [12]. For the same molecule, the IC50 is 1.7 µM in [13], 0.0767 µM in assay [14] and 0.243 µM in assay [15]. For the same molecule, the “survival (Kaplan-Meier)” value in assay [16] was “No effect in survival”.
In the case of `Cn1nnc2c(C(N)=O)ncn2c1=O` [TMZ, Temozolomide], the inhibition at 25 µM in assay [17] (TMZ 25 μM alone) turned out to be 11.4%; in assay [18] (TMZ 25 μM alone), 69%. In addition, the inhibition at 50 µM is 0% in [17] (TMZ 50 μM alone) and 73% in [18] (TMZ 50 μM alone). The inhibition at 100 µM in assay [17] (TMZ 100 μM alone) was found to be 0%; in assay [18] (TMZ 100 μM alone), 77%. In assay [17] (TMZ 200 μM alone), the inhibition at 200 µM was determined as 4.3%.
